According to US7541368B2, “Pyrazoles as inhibitors of tumor necrosis factor” (Aventis Pharmaceuticals Inc., priority 2003, dated 2009):

Legend:
[1] = tested on: TNF-alpha release in THP-1 cells; assay: LPS-induced TNF-alpha release in THP-1 cells; assay type: cell-based; settings: Homo sapiens, THP-1, LPS-stimulated THP-1 cells; read-out: 50% inhibition in the LPS-induced TNF-alpha release in THP-1 cells assay at concentrations within the range
Method in brief: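 Undifferentiated THP-1 monocytes (1×10^6 cells/ml, 1% FCS) preincubated 1 h at 37° C with compound (1×10^−9 to 1×10^−6 M, 0.3% DMSO), then stimulated with LPS (20 μg/ml) for 18 h. Supernatant TNF-alpha measured by sandwich ELISA (TMB read-out), interpolated from a log/log standard curve (0.125-16 ng/ml).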

[2] = biological target: T1, Inactive N-terminal His6 tagged murine P38 (Mus musculus, UniProt P47811); assay: p38 cascade assay (HTRF; inactive p38 activated by MKK-6, ATF-2 phosphorylation); assay type: biochemical; settings: inactive p38 preincubated with compound, then MKK-6, ATF-2, ATP; read-out: 50% inhibition in the p38 cascade assay at concentrations within the range
T1 construct: His6 (N); made in house
T1 sequence (P47811 whole entry): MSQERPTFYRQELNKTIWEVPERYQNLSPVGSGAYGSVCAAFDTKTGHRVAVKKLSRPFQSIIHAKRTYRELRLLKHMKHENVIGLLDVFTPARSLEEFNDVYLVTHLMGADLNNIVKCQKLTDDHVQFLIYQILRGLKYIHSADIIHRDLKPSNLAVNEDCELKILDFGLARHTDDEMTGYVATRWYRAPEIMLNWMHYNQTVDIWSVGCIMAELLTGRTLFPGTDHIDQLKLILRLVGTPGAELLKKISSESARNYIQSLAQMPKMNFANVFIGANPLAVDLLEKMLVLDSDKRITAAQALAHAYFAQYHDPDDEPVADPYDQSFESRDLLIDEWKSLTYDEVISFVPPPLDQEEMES
Procedure: The homogeneous time resolved fluorescence method (HTRF) assay measured the phosphorylation of human activating transcription factor (ATF)-2 protein by P38 following activation by MKK-6 and was run in A384 well plate format. […] MBP-tagged mouse MKK-6 (final concentration 50 nM), GST-tagged ATF-2 (fmal concentration 200 nM) and ATP (final concentration 50 μM) were then added and the incubation continued for 90 min. p38, MKK-6 and ATF-2 were prepared in the Protein Production Group, Aventis Pharmaceuticals. XL665 labeled anti-GST antibody (Cis Bio International) and cryptate labeled anti-pbospho-ATF2 antibody (Cis Bio International) were then added to generate the specific signal proportional to the phosphorylation of the substrate. The close proximity of XL665 labeled anti-GST antibody/phosphorylated GST-ATF2 complex and the cryptate labeled anti-phospho-ATF2 antibody results in a fluorescence transfer from cryptate to XL665. The resulting fluorescence signal was than read on a LJL Acquest set at multi-method mode using a fluorescence filter set (E=360 nm, Em=615/665 nm) with UV dichroic mirror (Integration time: 300000 μs). The results are reported as IC50 values. Compounds were tested over the concentration range of 3×10^−10M to 3×10^−5M.

SMILES	IC50 [1]	IC50 [2]
Cc1ccc(-n2nc(C(C)(C)C)cc2NC(=O)Nc2cccc(CC3CCN(C(=O)c4csc(-c5ccncc5)n4)CC3)c2)cc1 [Compound A34, 1-(5-tert-Butyl-2-p-tolyl-2H-pyrazol-3-yl)-3-{3-[1-(2-pyridin-4-yl-thiazole-4-carbonyl)-piperidin-4-ylmethyl]-phenyl}-urea]	10 to 500 nM	10 to 100 nM
Cc1ccc(-n2nc(C(C)(C)C)cc2NC(=O)Nc2cccc(CC3CCN(C(=O)c4cccnc4Cl)CC3)c2)cc1 [Compound A42, 1-(5-tert-Butyl-2-p-tolyl-2H-pyrazol-3-yl)-3-{3-[1-(2-chloro-pyridine-3-carbonyl)-piperidin-4-ylmethyl]-phenyl}-urea]	10 to 500 nM	10 to 100 nM
Cc1ccc(-n2nc(C(C)(C)C)cc2NC(=O)Nc2cccc(CC3CCN(C(=O)Cc4ccccc4F)CC3)c2)cc1 [Compound A43, 1-(5-tert-Butyl-2-p-tolyl-2H-pyrazol-3-yl)-3-(3-{1-[2-(2-fluoro-phenyl)-acetyl]-piperidin-4-ylmethyl}-phenyl)-urea]	10 to 500 nM	10 to 100 nM
Cc1ccc(-n2nc(C(C)(C)C)cc2NC(=O)Nc2cccc(CC3CCN(C(=O)c4cccnc4C)CC3)c2)cc1 [Compound A59, 1-(5-tert-Butyl-2-p-tolyl-2H-pyrazol-3-yl)-3-{3-[1-(2-methyl-pyridine-3-carbonyl)-piperidin-4-ylmethyl]-phenyl}-urea]	10 to 500 nM	10 to 100 nM
CC(=O)Nc1cccc(C(=O)N2CCC(Cc3cccc(NC(=O)Nc4cc(C(C)(C)C)nn4-c4ccc(C)cc4)c3)CC2)c1 [Compound A88, N-[3-(4-{3-[3-(5-tert-Butyl-2-p-tolyl-2H-pyrazol-3-yl)-ureido]-benzyl}-piperidine-1-carbonyl)-phenyl]-acetamide]	10 to 500 nM	10 to 100 nM
COc1ccc(C(=O)N2CCC(Cc3cccc(NC(=O)Nc4cc(C(C)(C)C)nn4-c4ccc(C)cc4)c3)CC2)c(C)c1 [Compound A120, 1-(5-tert-Butyl-2-p-tolyl-2H-pyrazol-3-yl)-3-{3-[1-(4-methoxy-2-methyl-benzoyl)-piperidin-4-ylmethyl]-phenyl}-urea]	10 to 500 nM	10 to 100 nM
COc1cscc1C(=O)N1CCC(Cc2cccc(NC(=O)Nc3cc(C(C)(C)C)nn3-c3ccc(C)cc3)c2)CC1 [Compound A123, 1-(5-tert-Butyl-2-p-tolyl-2H-pyrazol-3-yl)-3-{3-[1-(4-methoxy-thiophene-3-carbonyl)-piperidin-4-ylmethyl]-phenyl}-urea]	10 to 500 nM	10 to 100 nM
Cc1ccc(-n2nc(C(C)(C)C)cc2NC(=O)Nc2cccc(CC3CCN(C(=O)c4ccc(C)s4)CC3)c2)cc1 [Compound A137, 1-(5-tert-Butyl-2-p-tolyl-2H-pyrazol-3-yl)-3-{3-[1-(5-methyl-thiophene-2-carbonyl)-piperidin-4-ylmethyl]-phenyl}-urea]	10 to 500 nM	10 to 100 nM
Cc1ccc(-n2nc(C(C)(C)C)cc2NC(=O)Nc2cccc(CC3CCN(C(=O)CNC(=O)c4ccccc4)CC3)c2)cc1 [Compound A163, N-[2-(4-{3-[3-(5-tert-butyl-2-p-tolyl-2H-pyrazol-3-yl)-ureido]-benzyl}-piperidin-1-yl)-2-oxo-ethyl]-benzamide]	10 to 500 nM	10 to 100 nM
Cc1ccc(-n2nc(C(C)(C)C)cc2NC(=O)Nc2cccc(CC3CCN(C(=O)c4ccncc4)CC3)c2)cc1 [Compound A170, 1-(5-tert-Butyl-2-p-tolyl-2H-pyrazol-3-yl)-3-{3-[1-(pyridine-4-carbonyl)-piperidin-4-ylmethyl]-phenyl}-urea]	10 to 500 nM	10 to 100 nM
COCC(=O)N1CCC(Cc2cccc(NC(=O)Nc3cc(C(C)(C)C)nn3-c3ccc(C)cc3)c2)CC1 [Compound A173, 1-(5-tert-Butyl-2-p-tolyl-2H-pyrazol-3-yl)-3-{3-[1-(2-methoxy-acetyl)-piperidin-4-ylmethyl]-phenyl}-urea]	10 to 500 nM	10 to 100 nM
CC(=O)NCC(=O)N1CCC(Cc2cccc(NC(=O)Nc3cc(C(C)(C)C)nn3-c3ccc(C)cc3)c2)CC1 [Compound A179, N-[2-(4-{3-[3-(5-tert-Butyl-2-p-tolyl-2H-pyrazol-3-yl)-ureido]-benzyl}-piperidin-1-yl)-2-oxo-ethyl]-acetamide]	10 to 500 nM	10 to 100 nM
Cc1ccc(-n2nc(C(C)(C)C)cc2NC(=O)Nc2cccc(CC3CCN(C(=O)c4cccnc4)CC3)c2)cc1 [Compound A181, 1-(5-tert-Butyl-2-p-tolyl-2H-pyrazol-3-yl)-3-{3-[1-(pyridine-3-carbonyl)-piperidin-4-ylmethyl]-phenyl}-urea]	10 to 500 nM	10 to 100 nM
Cc1ccc(-n2nc(C(C)(C)C)cc2NC(=O)Nc2ccc(CC3CCN(C(=O)Cc4ccc(F)cc4F)CC3)cc2)cc1 [Compound A217, 1-(5-tert-Butyl-2-p-tolyl-2H-pyrazol-3-yl)-3-(4-{1-[2-(2,4-difluoro-phenyl)-acetyl]-piperidin-4-ylmethyl}-phenyl)-urea]	10 to 500 nM	10 to 100 nM
Cc1ccc(-n2nc(C(C)(C)C)cc2NC(=O)Nc2ccc(CC3CCN(C(=O)c4sc(C)nc4C)CC3)cc2)cc1 [Compound A219, 1-(5-tert-Butyl-2-p-tolyl-2H-pyrazol-3-yl)-3-{4-[1-(2,4-dimethyl-thiazole-5-carbonyl)-piperidin-4-ylmethyl]-phenyl}-urea]	10 to 500 nM	10 to 100 nM
COc1ccc(OC)c(C(=O)N2CCC(Cc3ccc(NC(=O)Nc4cc(C(C)(C)C)nn4-c4ccc(C)cc4)cc3)CC2)c1 [Compound A220, 1-(5-tert-Butyl-2-p-tolyl-2H-pyrazol-3-yl)-3-{4-[1-(2,5-dimethoxy-benzoyl)-piperidin-4-ylmethyl]-phenyl}-urea]	10 to 500 nM	10 to 100 nM
Cc1ccc(-n2nc(C(C)(C)C)cc2NC(=O)Nc2ccc(CC3CCN(C(=O)c4cnccn4)CC3)cc2)cc1 [Compound A256, 1-(5-tert-Butyl-2-p-tolyl-2H-pyrazol-3-yl)-3-{4-[1-(pyrazine-2-carbonyl)-piperidin-4-ylmethyl]-phenyl}-urea]	10 to 500 nM	10 to 100 nM
Cc1ccc(-n2nc(C(C)(C)C)cc2NC(=O)Nc2ccc(CC3CCN(C(=O)c4nccnc4N)CC3)cc2)cc1 [Compound A283, 1-{4-[1-(3-Amino-pyrazine-2-carbonyl)-piperidin-4-ylmethyl]-phenyl}-3-(5-tert-butyl-2-p-tolyl-2H-pyrazol-3-yl)-urea]	10 to 500 nM	10 to 100 nM
Cc1ccc(-n2nc(C(C)(C)C)cc2NC(=O)Nc2ccc(CC3CCN(C(=O)c4occc4C)CC3)cc2)cc1 [Compound A289, 1-(5-tert-Butyl-2-p-tolyl-2H-pyrazol-3-yl)-3-{4-[1-(3-methyl-furan-2-carbonyl)-piperidin-4-ylmethyl]-phenyl}-urea]	10 to 500 nM	10 to 100 nM
Cc1ccc(-n2nc(C(C)(C)C)cc2NC(=O)Nc2ccc(CC3CCN(C(=O)c4oc5ccccc5c4C)CC3)cc2)cc1 [Compound A290, 1-(5-tert-Butyl-2-p-tolyl-2H-pyrazol-3-yl)-3-{4-[1-(3-methyl-benzofuran-2-carbonyl)-piperidin-4-ylmethyl]-phenyl}-urea]	10 to 500 nM	10 to 100 nM
